Values joined by “and” are separate entries in the source; they are usually repeats but may differ in a detail not shown here. Equal entries are not always repeated.
Legend:
[1] = tested on: E. faecalis V583; assay: MIC by microdilution, E. faecalis V583; assay type: cell-based, Enterococcus faecalis; conditions: E. faecalis V583 (VanB positive, glycopeptide resistant), in duplicate
Experimental: (§1) The antibacterial profile of each derivative was evaluated by the standard microdilution method for susceptibility testing on 16 different strains, following the guidelines of CLSI. The selected panel included: • S. aureus ATCC25923 (MecA negative, wild-type) • S. aureus ATCC29213 (MecA negative, wild-type) • S. aureus ATCC700699 (MecA positive, glycopeptide resistant) • S. aureus ST20131365 (MecA positive, glycopeptide resistant) • S. epidermidis ATCC14990 (MecA negative, wild-type) • S. epidermidis ATCC35984 (MecA positive) • S. epidermidis ST20140436 (MecA positive, glycopeptide resistant) • S. epidermidis ST20150446 (MecA positive, glycopeptide resistant) • E. faecalis JH2-2 (wild-type) • E. faecalis UCN41 (VanA positive, glycopeptide resistant) • E. faecalis V583 (VanB positive, glycopeptide resistant) • E. faecium ATCC19434T (wild-type) • E. faecium BM4147 (VanA positive, glycopeptide resistant) • E. faecium AUS0004 (VanB positive, glycopeptide resistant) • E. coli ATCC25922 (wild-type) • Clostridium difficile ATCC9689 (wild-type)
(§2) Both series issued from the SAR study were evaluated for their antibacterial activity on a panel of characterized strains obtained from the French National Reference Centers for Staphylococci (Lyon, Pr. Fréderique Laurent) and for Enterococci (Caen, Pr. Vincent Cattoir), respectively. As shown in the following tables, both series contain very active compounds on multi-resistant Gram-positive bacteria (Minimal Inhibitory Concentrations lower than comparator antibiotic ampicillin). Furthermore, a very important antibacterial effect has been shown too on a strain of Clostridium difficile, a Gram-positive, spore-forming, bacillus responsible for post-antibiotic diarrhoae.
(§3) The antibacterial activity of test compounds was evaluated on a selected panel of Gram-positive (4 Staphylococcus aureus, 4 Staphylococcus epidermidis, 3 Enterococcus faecalis, 3 Enterococcus faecium, 1 Clostridium difficile) and Gram-negative strains (1 Escherichia coli, 1 Klebsiella pneumoniae, 1 Pseudomonas aeruginosa, 1 Acinetacter baumannii) with known features of antibiotic resistance (from wild-type susceptibility to multi-drug resistance). The Minimal Inhibitory Concentration (MIC) of test compounds was determined in duplicate by the microdilution method in 96-well microplates with a final volume of 100 μL per well and Mueller-Hinton broth as the growth medium, as recommended by the CLSI (Clinical and Laboratory Standards Institute, document Mo7-A10, USA).

[2] = tested on: E. faecalis JH2-2; assay: MIC by microdilution, E. faecalis JH2-2; assay type: cell-based, Enterococcus faecalis; parameters: unit not given here; conditions: E. faecalis JH2-2 (wild-type), in duplicate
Experimental: as §1, §2, §3

[3] = tested on: E. faecium ATCC19434T; assay: MIC by microdilution, E. faecium ATCC19434T; assay type: cell-based, Enterococcus faecium; parameters: unit not given here; conditions: E. faecium ATCC19434T (wild-type), in duplicate
Experimental: as §1, §2, §3

[4] = tested on: S. aureus ST20131365; assay: MIC by microdilution, S. aureus ST20131365; assay type: cell-based, Staphylococcus aureus; conditions: S. aureus ST20131365 (MecA positive, glycopeptide resistant), in duplicate
Experimental: as §1, §2, §3

[5] = tested on: panel of Gram-positive and Gram-negative strains; assay: Antibacterial profile on the selected panel of strains; assay type: cell-based; conditions: summary of Tables 1-12
Experimental: as §1, §2, §3

[6] = tested on: E. coli ATCC25922; assay: MIC by microdilution, E. coli ATCC25922; assay type: cell-based, Escherichia coli; conditions: E. coli ATCC25922 (wild-type), in duplicate
Experimental: as §1, §2, §3

[7] = tested on: E. faecalis UCN41; assay: MIC by microdilution, E. faecalis UCN41; assay type: cell-based, Enterococcus faecalis; parameters: unit not given here; conditions: E. faecalis UCN41 (VanA positive, glycopeptide resistant), in duplicate
Experimental: as §1, §2, §3

[8] = tested on: S. aureus ATCC29213; assay: MIC by microdilution, S. aureus ATCC29213; assay type: cell-based, Staphylococcus aureus; conditions: S. aureus ATCC29213 (MecA negative, wild-type), Mueller-Hinton broth, in duplicate
Experimental: as §1, §2, §3

[9] = tested on: S. aureus ATCC25923; assay: MIC by microdilution, S. aureus ATCC25923; assay type: cell-based, Staphylococcus aureus; conditions: S. aureus ATCC25923 (MecA negative, wild-type), Mueller-Hinton broth, in duplicate
Experimental: as §1, §2, §3

[10] = tested on: E. faecium AUS0004; assay: MIC by microdilution, E. faecium AUS0004; assay type: cell-based, Enterococcus faecium; conditions: E. faecium AUS0004 (VanB positive, glycopeptide resistant), in duplicate
Experimental: as §1, §2, §3

[11] = tested on: S. aureus ATCC700699; assay: MIC by microdilution, S. aureus ATCC700699; assay type: cell-based, Staphylococcus aureus; parameters: unit not given here; conditions: S. aureus ATCC700699 (MecA positive, glycopeptide resistant), in duplicate
Experimental: as §1, §2, §3

[12] = tested on: S. epidermidis ATCC35984; assay: MIC by microdilution, S. epidermidis ATCC35984; assay type: cell-based, Staphylococcus epidermidis; conditions: S. epidermidis ATCC35984 (MecA positive), in duplicate
Experimental: as §1, §2, §3

[13] = tested on: Clostridium difficile ATCC700057; assay: MIC by microdilution, Clostridium difficile; assay type: cell-based; conditions: strain ATCC70057 [sic] (Tables 1-2) / ATCC700057 (Tables 3-10), in duplicate
[14] = tested on: E. faecium BM4147; assay: MIC by microdilution, E. faecium BM4147; assay type: cell-based, Enterococcus faecium; parameters: unit not given here; conditions: E. faecium BM4147 (VanA positive, glycopeptide resistant), in duplicate
Experimental: as §1, §2, §3

[15] = tested on: S. epidermidis ATCC14990; assay: MIC by microdilution, S. epidermidis ATCC14990; assay type: cell-based, Staphylococcus epidermidis; conditions: S. epidermidis ATCC14990 (MecA negative, wild-type), in duplicate
Experimental: as §1, §2, §3

[16] = tested on: S. epidermidis ST20150446; assay: MIC by microdilution, S. epidermidis ST20150446; assay type: cell-based, Staphylococcus epidermidis; conditions: S. epidermidis ST20150446 (MecA positive, glycopeptide resistant), in duplicate
Experimental: as §1, §2, §3

[17] = tested on: S. epidermidis ST20140436; assay: MIC by microdilution, S. epidermidis ST20140436; assay type: cell-based, Staphylococcus epidermidis; conditions: S. epidermidis ST20140436 (MecA positive, glycopeptide resistant), in duplicate
Experimental: as §1, §2, §3

| SMILES | Minimal Inhibitory Concentration (MIC) [1] | Minimal Inhibitory Concentration (MIC) [2] | Minimal Inhibitory Concentration (MIC) [3] | Minimal Inhibitory Concentration (MIC) [4] | antimicrobial / antibacterial activity (in words) [5] | Minimal Inhibitory Concentration (MIC) [6] | Minimal Inhibitory Concentration (MIC) [7] | Minimal Inhibitory Concentration (MIC) [8] | Minimal Inhibitory Concentration (MIC) [9] | Minimal Inhibitory Concentration (MIC) [10] | Minimal Inhibitory Concentration (MIC) [11] | Minimal Inhibitory Concentration (MIC) [12] | Minimal Inhibitory Concentration (MIC) [13] | Minimal Inhibitory Concentration (MIC) [14] | Minimal Inhibitory Concentration (MIC) [15] | Minimal Inhibitory Concentration (MIC) [16] | Minimal Inhibitory Concentration (MIC) [17] |
| --- | --- | --- | --- | --- | --- | --- | --- | --- | --- | --- | --- | --- | --- | --- | --- | --- | --- |
| CC[P+](CC)(CC)[Au-][c]1nn[nH]c1-c1ccc(C(=O)O)cc1 [TMB14] | 1 | 0.5 | 0.5 | 0.125 and 0.25 | have antimicrobial activity | >8 | 0.5 and 1 | 0.125 | 0.125 | 0.5 | 0.125 | ≤0.06 | 0.125 | 0.5 | ≤0.06 |  |  |
| CC[P+](CC)(CC)[Au-][c]1nn[nH]c1-c1ccc(C(=O)NC(C(=O)NC2C(=O)N3C2SC(C)(C)C3C(=O)O)c2ccccc2)cc1 (stereo not drawn) [TMB22] | 0.5 | 0.5 | 1 | 0.25 | have antimicrobial activity | >8 | 1 | 0.125 | 0.125 | 1 | 0.125 and 0.25 |  | ≤0.06 | 1 | ≤0.06 |  |  |
| CC[P+](CC)(CC)[Au-][c]1nn[nH]c1C1CCC(C(=O)O)CC1 (stereo not drawn) [TMB25] | 0.125 | 0.125 | 0.125 |  | have antimicrobial activity | >8 | 0.125 | 0.25 |  | 0.125 | 0.25 | ≤0.06 | ≤0.06 | 0.125 | ≤0.06 | 0.125 and 0.25 |  |
| O=C(N[C@@H](C(=O)O)c1ccccc1)OCc1cnn[nH]1 [TMB41] | >8 | >8 | >8 | >8 | do not show an antibacterial activity |  | >8 | >8 | >8 | >8 | >8 | >8 | >8 | >8 | >8 | >8 | >8 |
| CC[P+](CC)(CC)[Au-][c]1nn[nH]c1CNC(=O)CCCC[C@@H]1SC[C@@H]2NC(=O)N[C@@H]21 [TMB42] | 1 | 0.25 | 0.25 | 0.25 | have antimicrobial activity |  | 1 | 0.25 | 0.125 | 0.5 | 0.25 | ≤0.06 | 0.25 | 0.5 | ≤0.06 | ≤0.06 | ≤0.06 |
| CC[P+](CC)(CC)[Au-][c]1nn[nH]c1-c1c(C)noc1C [TMB43] | 0.25 | 0.25 | 0.125 | 0.125 | have antimicrobial activity |  | 0.25 | 0.125 | ≤0.06 | 0.25 | 0.125 | ≤0.06 | 0.25 | 0.125 | ≤0.06 | ≤0.06 | 0.125 |
| CC[P+](CC)(CC)[Au-][c]1nn[nH]c1COC(=O)NC(C(=O)O)c1ccccc1 (stereo not drawn) [TMB45] | 0.5 | 0.5 | 0.25 | 0.25 | have antimicrobial activity |  | 0.25 | 0.25 | 0.125 | 0.5 | 0.25 | ≤0.06 | 0.125 | 0.25 | ≤0.06 | ≤0.06 | ≤0.06 |
| O=C(CCc1cnn[nH]1)N[C@@H](C(=O)O)c1ccccc1 [TMB46] | >8 | >8 | >8 | >8 | do not show an antibacterial activity |  | >8 | >8 | >8 | >8 | >8 | >8 | >8 | >8 | >8 | >8 | >8 |

Source: patent US20210284668A1, “GOLD (I)-PHOSPHINE 1,2,3-TRIAZOLE DERIVATIVES WITH ANTIBIOTIC PROPERTIES” (Centre National de la Recherche Scientifique, priority 2018, published 2021)
